Key:
[1] = Stability assay in rabbit vitreous humor; assay type: in vitro ADME; conditions: 1 μM in rabbit vitreous; for half-life at 1 μM: rabbit vitreous humor, read-out: t½ Rabbit VH
Procedure: (§1) Compounds are incubated at a concentration of 1 μM in rabbit aqueous humor (AH) or rabbit vitreous (VH). Samples are taken at fixed time points and the remnant of compound is determined by LC-MS/MS after protein precipitation.

[2] = Stability assay in rabbit aqueous humor; assay type: in vitro ADME; conditions: 1 μM in rabbit aqueous humor; for half-life at 1 μM: read-out: t½ Rabbit AH
Procedure: as §1

[3] = Pharmacokinetics after intravenous and oral administration in mice; assay type: in vivo, male CD-1 mice
Procedure: The bioavailability of compound 1 was evaluated after intravenous and oral dosing in male CD-1 mice. The compound was dosed at 0.1 mg/kg intravenously and 1 mg/kg orally. Plasma levels were determined by LC-MS/MS and pharmacokinetic parameters were estimated by a non-compartmental model using WinNonlin v5.2.1 software.

human hepatocytes = experiment: Stability assay in human hepatocytes; assay type: in vitro ADME; conditions: 1 μM
Procedure: Compounds are incubated at a concentration of 1 μM with human hepatocytes (2 10^6 cells/ml in buffer solution). At fixed time points (ex: 1, 30, 60 & 120 minutes), an incubation mixture (200 μl) is cooled down on ice and 100 μl of acetonitrile is added. After vortex-mixing, the sample is centrifuged for 5 minutes at 16000 rpm. The remnant of compound in each sample is determined by LC-PDA-MS/MS analysis and half-life of the compound is subsequently calculated. Formation of the acid metabolite resulting from ester hydrolysis can be performed simultaneously. Peak areas for appearance of the acid are first recorded, and the corresponding concentrations are then back-calculated from calibration curve.
When evaluated under such conditions, compounds of the invention are rapidly degraded in the corresponding acid (primary metabolite).

## NCc1ccc(C(=O)Nc2ccncc2F)cc1-c1cccc(C(=O)Nc2ccc(C(=O)OCC3CCCO3)cc2)c1 (stereo not drawn) [Compound 10, oxolan-2-ylmethyl 4-({3-[2-(aminomethyl)-5-[(3-fluoropyridin-4-yl)carbamoyl]phenyl]phenyl}amido)benzoate]
[1]
  t½ Rabbit VH: >1 h
[2]
  t½ Rabbit AH: >1 h

## CCCOC(=O)c1ccc(NC(=O)c2cccc(-c3cc(C(=O)Nc4ccncc4F)ccc3CN)c2)cc1C [Compound 6, propyl 4-({3-[2-(aminomethyl)-5-[(3-fluoropyridin-4-yl)carbamoyl]phenyl]phenyl}amido)-2-methylbenzoate]
[1]
  t½ Rabbit VH: >1 h
[2]
  t½ Rabbit AH: >1 h

## COC(=O)c1ccc(C(=O)Nc2cccc(-c3cc(C(=O)Nc4ccncc4F)ccc3CN)c2)cc1 [Compound 7, methyl 4-({3-[2-(aminomethyl)-5-[(3-fluoropyridin-4-yl)carbamoyl]phenyl]phenyl}carbamoyl)benzoate]
[1]
  half-life at 1 μM: > 1 h
[2]
  half-life at 1 μM: > 1 h

## COC(=O)c1ccc(C(=O)Nc2cccc(-c3cc(C(=O)Nc4ccncc4F)ccc3CN)c2)nc1 [Compound 8, methyl 6-({3-[2-(aminomethyl)-5-[(3-fluoropyridin-4-yl)carbamoyl]phenyl]phenyl}carbamoyl)pyridine-3-carboxylate]
[1]
  half-life at 1 μM: > 1 h
[2]
  half-life at 1 μM: > 1 h

## COC(=O)c1ccc(NC(=O)c2cccc(-c3cc(C(=O)Nc4ccncc4F)ccc3CN)c2)cc1C [Compound 5, methyl 4-({3-[2-(aminomethyl)-5-[(3-fluoropyridin-4-yl)carbamoyl]phenyl]phenyl}amido)-2-methylbenzoate]
[1]
  t½ Rabbit VH: >1 h
[2]
  t½ Rabbit AH: >1 h

## COC(=O)c1ccc(NC(=O)c2cccc(-c3cc(C(=O)Nc4ccncc4F)ccc3CN)c2)c(F)c1 [Compound 2, methyl 4-({3-[2-(aminomethyl)-5-[(3-fluoropyridin-4-yl)carbamoyl]phenyl]phenyl}amido)-3-fluorobenzoate]
[1]
  t½ Rabbit VH: >1 h
[2]
  t½ Rabbit AH: >1 h

## COC(=O)c1ccc(NC(=O)c2cccc(-c3cc(C(=O)Nc4ccncc4F)ccc3CN)c2)cc1 [Compound 1, methyl 4-({3-[2-(aminomethyl)-5-[(3-fluoropyridin-4-yl)carbamoyl]phenyl]phenyl}amido)benzoate]
[1]
  t½ Rabbit VH: >1 h
[3]; intravenous 0.1 mg/kg
  AUClast (intravenous exposure): 4.82 ± 0.276 ng·h/mL
  clearance: 257 mL/min/kg
  volume of distribution: 100 L/kg
[3]; intravenous 0.1 mg/kg, mouse plasma
  Cmax: 16.3 ng/mL
[3]; mice, intravenous and oral
  metabolism and excretion in words: rapidly metabolized and excreted from the body very rapidly
[3]; oral 1 mg/kg
  AUClast: 6.20 ± 5.50 ng·h/mL
  Cmax: 22.4 ± 22 ng/mL
[3]; oral 1 mg/kg vs intravenous 0.1 mg/kg
  percent oral bioavailability: 12.9%
[2]
  t½ Rabbit AH: >1 h
Human hepatocytes
  t1/2 in human hepatocytes: 0.233 h
Human hepatocytes; time 1 min
  % remaining: 100.0%
Human hepatocytes; time 30 min
  % remaining: 16.0 +/− 0.4%
Human hepatocytes; time 60 min
  % remaining: 4.8 +/− 0.1%
Human hepatocytes; time 120 min
  % remaining: 2.4 +/− 1.3%

## COC(=O)c1ccc(NC(=O)c2cccc(-c3cc(C(=O)Nc4ccncc4F)ccc3CN)c2)cc1F [Compound 3, methyl 4-({3-[2-(aminomethyl)-5-[(3-fluoropyridin-4-yl)carbamoyl]phenyl]phenyl}amido)-2-fluorobenzoate]
[1]
  t½ Rabbit VH: >1 h
[2]
  t½ Rabbit AH: >1 h

## COCCOC(=O)c1ccc(NC(=O)c2cccc(-c3cc(C(=O)Nc4ccncc4F)ccc3CN)c2)cc1 [Compound 9, 2-methoxyethyl 4-({3-[2-(aminomethyl)-5-[(3-fluoropyridin-4-yl)carbamoyl]phenyl]phenyl}amido)benzoate]
[1]
  t½ Rabbit VH: >1 h
[2]
  t½ Rabbit AH: >1 h

## CCCOC(=O)c1ccc(NC(=O)c2cccc(-c3cc(C(=O)Nc4ccncc4F)ccc3CN)c2)c(F)c1 [Compound 4, propyl 4-({3-[2-(aminomethyl)-5-[(3-fluoropyridin-4-yl)carbamoyl]phenyl]phenyl}amido)-3-fluorobenzoate]
[1]
  t½ Rabbit VH: >1 h
[2]
  t½ Rabbit AH: >1 h

Source: patent publication US9079858B2, “Rock kinase inhibitors” (Amakem NV, priority 2011, dated 2015)
